Data as given in article PMC13077603, “Fluorine‐18‐Labeled Nucleotide Analogs Targeting Ecto‐5'‐Nucleotidase (CD73) for Positron Emission Tomography Imaging of Solid Tumors” (Angewandte Chemie (International Ed. in English), 2026).

Tests used:
[1] = target: T1, Soluble recombinant human CD73 (Homo sapiens, UniProt P21589); test: CD73 enzyme inhibition assay, soluble recombinant human CD73; type: biochemical; settings: soluble recombinant human CD73, Km 17 µM, substrate AMP (5 µM)
T1 sequence (P21589 27-549 limits assumed): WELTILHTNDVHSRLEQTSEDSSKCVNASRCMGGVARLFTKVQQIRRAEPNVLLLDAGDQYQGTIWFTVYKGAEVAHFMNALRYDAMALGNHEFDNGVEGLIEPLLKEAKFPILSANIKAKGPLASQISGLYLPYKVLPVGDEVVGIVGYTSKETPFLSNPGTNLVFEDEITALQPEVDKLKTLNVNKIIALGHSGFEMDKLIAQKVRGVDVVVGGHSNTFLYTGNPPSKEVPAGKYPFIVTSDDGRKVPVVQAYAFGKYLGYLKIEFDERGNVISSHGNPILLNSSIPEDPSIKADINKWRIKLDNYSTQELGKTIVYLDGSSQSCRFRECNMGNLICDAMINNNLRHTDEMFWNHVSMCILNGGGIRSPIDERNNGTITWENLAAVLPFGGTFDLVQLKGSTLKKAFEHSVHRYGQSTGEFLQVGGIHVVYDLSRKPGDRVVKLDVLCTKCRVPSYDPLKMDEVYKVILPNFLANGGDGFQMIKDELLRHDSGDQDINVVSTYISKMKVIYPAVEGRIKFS
Experimental: Both compounds were evaluated for metabolic stability in mouse liver microsomes (MLM) and plasma protein binding (PPB) (Table 1).
The CD73 enzyme inhibition assay of recombinant soluble CD73, membrane-bound human CD73, soluble rat CD73 and mouse CD73 was performed as previously described.^[16,35^]

[2] = logD7.4 determination of radiotracers (PBS/octan-1-ol); type: physicochemical; settings: octan-1-ol/PBS; PBS pH 7.4 / octan-1-ol, radiotracer
Experimental: The logD 7.4 values of both radiotracers were determined using a previously described method based on their distribution between phosphate‐buffered saline (PBS) and octan‐1‐ol.
Triazole radiotracers (~400 kBq) in PBS buffer (10 µL, pH 7.4) were added to PBS buffer (590 µL, pH 7.4) and octan-1-ol (600 µL). The two-layer mixture was shaken for 3 min on a vortex mixer at r.t. and centrifuged (200 g) for 5 min. The main part of the octanol layer (400 µL) was carefully collected and transferred to a new tube containing PBS buffer (400 µL, pH 7.4). The two-layer mixture was shaken again for 10 min and centrifuged for 5 min (200 g). Three samples were prepared, and two aliquots (á 100 µL) of both layers were measured in a gamma-counter 2480 Wizard2 (Perkin-Elmer, Waltham, USA). The partition coefficient was determined by dividing cpm (octanol) by cpm (PBS) and indicated as logD7.4 (exp.).

[3] = target: Human serum albumin (HSA) (Homo sapiens, UniProt P02768); test: Plasma protein binding (human serum albumin binding); type: in vitro ADME; settings: human serum albumin (HSA), read-out: Plasma protein binding (PPB) (converted)
Experimental: Human serum albumin (HSA) binding.
Plasma protein binding was determined following previously published procedure.^[38^]

[4] = target: T2, CD73/AMPase activity in human breast tumor tissues (Homo sapiens, UniProt P21589); test: In situ enzyme histochemistry of AMPase activity in breast tumor cryosections; type: biochemical; settings: 10–50 nM inhibitor, 400 µM AMP, tissue cryosections
T2 construct: cryosections of breast tumor samples as well as sentinel lymph node samples were investigated; from tissue; host or cells: primary breast tumors and sentinel lymph nodes of two patients, 6 µm cryosections
T2 sequence (P21589 27-574): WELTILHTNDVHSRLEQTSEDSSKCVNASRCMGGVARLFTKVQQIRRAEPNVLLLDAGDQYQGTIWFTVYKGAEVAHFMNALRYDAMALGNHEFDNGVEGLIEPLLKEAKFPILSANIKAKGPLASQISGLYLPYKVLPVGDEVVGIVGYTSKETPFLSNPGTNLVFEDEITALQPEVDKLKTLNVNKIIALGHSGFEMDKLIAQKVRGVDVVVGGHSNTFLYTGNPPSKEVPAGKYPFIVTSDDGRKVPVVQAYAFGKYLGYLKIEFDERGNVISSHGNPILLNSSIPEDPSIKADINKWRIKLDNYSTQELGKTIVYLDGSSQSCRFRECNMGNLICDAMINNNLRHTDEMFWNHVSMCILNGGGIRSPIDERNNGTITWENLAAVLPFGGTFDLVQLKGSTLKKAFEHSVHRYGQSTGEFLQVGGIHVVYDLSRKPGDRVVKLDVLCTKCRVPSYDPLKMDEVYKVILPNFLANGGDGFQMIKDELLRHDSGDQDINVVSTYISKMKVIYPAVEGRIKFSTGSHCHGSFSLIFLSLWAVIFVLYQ
Experimental: Subsequent analysis of CD73‐mediated AMPase activities was performed by incubating tissue cryosections with AMP and CD73 inhibitors at different concentrations. Figure 2 depicts representative images of AMP‐specific staining in breast tumors from patient X (panel A) and patient Y (panel B), determined in the absence (control) and in the presence of 10 nM of the potent CD73 inhibitor 1.
FIGURE 3 Effects of CD73 inhibitors on AMPase activity in human breast tumor tissues. The effects of CD73 inhibitors on AMPase activity was determined in situ by incubating primary breast tumor samples from patient X (A) and patient Y (B) with 400 µM AMP and 1.5 mM Pb(NO3)2 in the absence (control) and the presence of the indicated concentrations of CD73 inhibitor. (C). Mean pixel intensities of brown staining due to the hydrolysis of AMP leading to Pb3(PO4)2 precipitation were quantified in the selected regions and expressed as arbitrary units (AU) (mean ± SEM; n = 2). Scale bars: 2 mm (A, B), and 500 µm (A, right insets).
For the localization of AMPase activities in human tumors, the lead nitrate-based enzyme histochemistry was employed. […] AMPase activity was determined by measuring AMP-specific brown staining intensities from the images using QuPath v.0.3.0 software. […] The average DAB intensity levels were measured as described earlier.^[39^] […]

Sequence of Human serum albumin (HSA) (P02768 25-609): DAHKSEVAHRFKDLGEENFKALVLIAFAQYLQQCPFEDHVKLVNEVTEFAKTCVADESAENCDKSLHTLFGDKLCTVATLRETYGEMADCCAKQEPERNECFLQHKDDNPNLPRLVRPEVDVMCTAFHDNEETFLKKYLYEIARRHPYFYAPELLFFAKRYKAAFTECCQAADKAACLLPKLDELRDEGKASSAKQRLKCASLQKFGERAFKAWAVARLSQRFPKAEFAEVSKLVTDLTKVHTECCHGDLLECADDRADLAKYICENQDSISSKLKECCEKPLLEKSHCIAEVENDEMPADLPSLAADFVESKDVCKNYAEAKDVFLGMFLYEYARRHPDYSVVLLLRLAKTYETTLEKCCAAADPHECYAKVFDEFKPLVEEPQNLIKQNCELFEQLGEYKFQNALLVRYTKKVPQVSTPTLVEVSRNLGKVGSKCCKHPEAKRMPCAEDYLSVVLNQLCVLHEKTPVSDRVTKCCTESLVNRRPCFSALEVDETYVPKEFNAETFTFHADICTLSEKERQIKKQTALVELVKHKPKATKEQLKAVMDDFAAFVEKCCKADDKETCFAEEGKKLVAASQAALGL

Ki [1]: 0.664 nM
logD [2]: 0.74 ± 0.3
fraction unbound [3]: 0.34
Reduction of CD73/AMPase activity in the breast TME [4]: 60%–70
Compound: Cn1c(=O)n([C@@H]2O[C@H](COP(=O)(O)CP(=O)(O)O)[C@@H](O)[C@H]2O)cc/c1=N/OCc1ccc(-c2cn(CCF)nn2)cc1 [compound 2, [((2R,3S,4R,5R)-5-{4-[({4-[1-(2-Fluoroethyl)-1H-1,2,3-triazol-4-yl]benzyl}oxy)-imino]-3-methyl-2-oxo-3,4-dihydropyrimidin-1(2H)-yl}-3,4-dihydroxytetrahydro-furan-2-yl)methoxy]-(phosphonomethyl)phosphonic acid]
